Measured values published in patent US10183011B2, “Anti-depression compounds” (Board of Regents of the University of Texas System, priority 2009, dated 2019).
“Also recorded” adds a separate entry of the source.

Legend:
[1] = system: hippocampal neurogenesis in the DG; assay: Comparison of P7C3 compounds and antidepressant drugs: DG BrdU labeling after i.c.v. infusion; assay type: in vivo, mouse; conditions: 10 μM i.c.v. for 7 days
Description: The neuroprotective efficacies of both P7C3 and P7C3-A20 were next compared to currently marketed antidepressant medications, using screening conditions identical to those by which P7C3 was originally discovered. This experiment was based on the antidepressant actions of P7C3 and P7C3-A20 characterized here, and the dependence on hippocampal neurogenesis for behavioral efficacy of some marketed antidepressant medications in mice.
Proneurogenic efficacies in the DG of P7C3 and P7C3A20 were compared to those of vehicle (artificial cerebrospinal fluid) and several marketed antidepressant compounds (Sigma-Aldrich, St. Louis, Mo.) according to established methods. In brief, mice were housed individually in cages without running wheels or any form of environmental enrichment, in order to create an environment predicted to have as low of a baseline level of hippocampal neurogenesis as possible. Compounds (10 μM, i.c.v.) were administered for 7 days via subcutaneously implanted Alzet osmotic minipumps connected to a cannula directed into the left lateral ventricle, with implantation day designated as day 0. Starting on day 1, mice also received daily injections of BrdU (50 mg/kg, i.p.) at 9 am daily, for 6 days. Twenty four hours after the sixth BrdU injection, mice were transcardially perfused as described above.

[2] = system: neural precursor cells in the subgranular zone of the dentate gyrus; assay: In vivo pro-neurogenic efficacy/neuroprotection assay: intracerebroventricular infusion, BrdU incorporation in the dentate gyrus; parameters: species or system mouse (C57/Bl6); conditions: direct administration into the brain via Alzet minipumps for one week, 10 μM unless stated
Method: Compounds were evaluated for pro-neurogenic efficacy/neuroprotection in our standard in vivo assay at 10 μM concentration in four 12 week old adult male C57/Bl6 mice.
In an effort to identify compounds that might stimulate the birth of new neurons, or protect newborn neurons from cell death, a library of 1,000 compounds was screened using an in vivo assay. In the initial screen, compounds were randomly pooled into groups often and administered intracerebroventricularly at a constant rate over seven days into the left lateral ventricle of living mice via Alzet osmotic mini-pumps. Compounds were administered at a concentration of 10 μM for each molecule, making a total solute concentration of 100 μM. After seven days of infusion at a constant rate of 0.5 μL/hour, a total of 84 μL of volume will have left the pump (0.00084 μMoles) and entered the cerebrospinal fluid. The average volume of a brain from a 12 week old male, C57/B6 mouse in our study is 500 mm^3. […] Under these conditions, at the end of one week of infusion each compound would be present at 1.7 μMolar concentration. Since the actual amount of chemical compound in the brain is likely to be only a fraction of this predicted level, it is reasonable to estimate that compounds were administered at mid to low-nanomolar concentrations.
During compound infusion, animals were intraperitoneally (IP) injected daily with the thymidine analog, bromodeoxyuridine (BrdU), as a means of scoring the birth and survival of proliferating neural precursor cells in the hippocampus. Because both social interaction and voluntary exercise are known to stimulate hippocampal neurogenesis, mice were housed individually without access to running wheels throughout the screening period. Following the week-long period of compound administration, animals were perfused and sacrificed. Dissected brain tissue was fixed, embedded, sectioned, stained with antibodies to BrdU, and evaluated by light microcopy as a means of quantifying neurogenesis and survival of newborn neural precursor cells localized to the subgranular layer of the dentate gyrus on the brain hemisphere contralateral to the side of mini-pump cannulation. Every fifth section throughout the entire rostral-caudal extent of the hippocampus was analyzed, and the total number of BrdU+ cells was normalized against the measured volume of the dentate gyrus. Because both increased proliferation and survival of newborn neurons are important screening parameters, the screen was conducted over seven days in order to cast a wide net to detect molecules that might augment either process. […] Intracranial infusions of either fibroblast growth factor 2 (FGF-2) or artificial cerebral spinal fluid (aCSF) vehicle via the same, week-long protocol were employed as positive and negative controls. There was no difference in the number of BrdU-labeled cells in the dentate gyrus between mice subjected to surgical pump implantation and infusion with vehicle, and mice having had no surgery (FIG. 2). This confirmed the validity of the in vivo approach to assess the ability of intracerebroventricularly infused compounds to enhance hippocampal neurogenesis in the contralateral hemisphere.
In order to further study Example 45 Compound, an in vivo structure activity relationship (SAR) study was conducted using 37 chemical derivatives of the compound for pro-neurogenic activity via direct administration into the brain of adult mice via Alzet minipumps. Compounds were administered for one week at 10 uM into 4 mice per compound, along with daily IP injections of BrdU. Following compound administration, animals were perfused, sacrificed and subjected to sectioning, staining and light microscopy in order to monitor hippocampal neurogenesis localized to the subgranular layer of the dentate gyrus. Roughly 10% of the variant compounds retained pro-neurogenic activity indistinguishable from the parent compound. […]

[3] = system: SNc dopaminergic neurons; assay: MPTP-toxicity to SNc dopaminergic neurons, treatment started 24 hours after the last MPTP dose; assay type: in vivo, mouse (C57Bl/6); conditions: new analogs, 10 mice for each compound
Method: FIG. 29A and FIG. 29B. Neuroprotective efficacy of P7C3 and P7C3A20 from MPTP-toxicity to SNc dopaminergic neurons. FIG. 29A—Test compounds were evaluated by dose response assay for their ability to block MPTP-neurotoxicity in the SNc. […] VEH group contained 30 animals: 15 animals that received the P7C3A20/P7C3 vehicle, and 15 animals that received Dimebon vehicle (saline). […] Representative immunohistochemical pictures of TH-staining in the SNc are shown below the graph. Dosing is expressed as total mg/day, and was administered intraperitoneally in divided doses twice daily. Data are expressed as mean±SEM. […] P7C3A20 does so with greater effect, and Dimebon offers no protection. Striatal sections were obtained from the same mice used in FIG. 2, and compound treatment groups are from mice that received a dose of 20 mg/kg/d.
We compared the protective efficacy of our agents in the Tatton and Kish model of MPTP administration, which induces prolonged apoptotic death of SNc dopaminergic neurons lasting about 3 weeks after a short course of daily MPTP administration. Mice were treated daily for 5 days with 30 mg/kg/day free base MPTP. On the sixth day, 24 hours after receiving the fifth and final dose of MPTP, daily treatment with P7C3, P7C3A20, Dimebon or vehicle was initiated. […] Dose-response studies were conducted in which mice received twice daily doses of each compound (or vehicle) for the ensuing 21 days (FIG. 29A). […] At the end of the 21 day treatment period, mice were sacrificed by transcardial perfusion with 4% paraformaldehyde, and fixed brains were sectioned through the striatum and SNc at 30 μM intervals. Every fourth section (spaced 120 μM apart) was stained with antibodies specific to tyrosine hydroxylase (TH) (Abcam, rabbit anti-TH, 1:2500). The TH enzyme catalyzes the conversion of the amino acid L-tyrosine to L-3,4-dihydroxyphenylalanine (L-DOPA), which serves as the precursor for dopamine. TH staining thus provides a means to immunohistochemically identify dopaminergic neurons. By counting the number of TH+ cells in the SNc, we were able to assess the neuroprotective efficacy of the three chemicals following MPTP exposure. All microscopic analysis was performed by two investigators, blind to treatment group.
15 adult male C57Bl/6 mice were individually housed for one week and then injected daily for 5 days with 30 mg/kg/day (i.p.) free base MPTP (Sigma). On day 6, 24 hours after receiving the fifth and final dose of MPTP, daily treatment with P7C3, P7C3A20, Dimebon or vehicle was initiated. Mice were housed in disposable caging, and protective gear and precautions were implemented for handling MPTP in accordance with UT Southwestern Medical Center policy. Dose response studies were conducted in which mice received twice daily doses of each compound (or vehicle) by intraperitoneal injection for the following 21 days, after which mice were sacrificed by transcardial perfusion with 4% paraformaldehyde. Brains were dissected, fixed overnight in 4% paraformaldehyde, and cryoprotected in sucrose for freezing by standard procedures. Frozen brains were sectioned through the striatum and SNc at 30 uM intervals, and every fourth section (spaced 120 μM apart) was stained with antibodies directed against tyrosine hydroxylase (TH) (Abcam, rabbit anti-TH, 1:2500). Diaminobenzidine was used as a chromagen, and tissue was counter-stained with hematoxylin to aid in visualization of the neuroanatomy. Images were analyzed with a Nikon Eclipse 90i motorized research microscope with Plan Apo lenses coupled with Metamorph Image Acquisition software (Nikon). TH+ neurons were counted with Image J software (NIH) in every section by 2 blinded investigators and results were averaged and multiplied by the sectioning interval to determine the total number of TH+ neurons per SNc.

Row | Compound | increase of DG neurogenesis (BrdU labeling) over vehicle [1] | pro-neurogenic activity in the in vivo hippocampal neurogenesis assay [2] | activity in the MPTP protection assay [3] | also measured
1 | COc1ccc(C(CN(C)C)C2(O)CCCCC2)cc1 (stereo not shown) [venlafaxine] | did not affect the magnitude of neurogenesis | – | – | –
2 | CNCCC(Oc1ccc(C(F)(F)F)cc1)c1ccccc1 (stereo not shown) [fluoxetine] | did not affect the magnitude of neurogenesis | – | – | –
3 | CN(C)CCCN1c2ccccc2CCc2ccc(Cl)cc21 [clomipramine] | ~75% | – | – | –
4 | COc1cccc(NCC(O)Cn2c3ccc(Br)cc3c3cc(Br)ccc32)c1 (single isomer, unassigned; (+)) [(+) (dextrorotatory) enantiomer of 1-(3,6-Dibromo-9H-carbazo] | – | higher activity | – | –
5 | COc1cccc(NCC(C)(O)Cn2c3ccc(Br)cc3c3cc(Br)ccc32)c1 (stereo not shown) [Example P7C3-S54] | – | retain neuroprotective activity in both assays | retain neuroprotective activity in both assays | –
6 | OC(CSc1ccccc1)Cn1c2ccc(Br)cc2c2cc(Br)ccc21 (stereo not shown) [Example P7C3-S7] | – | active in both | active in both | activity in the MPTP protection assay ([3]; listed as P7C3S7): potency equal to or greater than P7C3 in both in vivo assays; pro-neurogenic activity in the in vivo hippocampal neurogenesis assay ([2]; listed as P7C3S7): potency equal to or greater than P7C3 in both in vivo assays
7 | COc1cccc(NCC(O)Cn2c3ccc(Br)cc3c3cc(Br)ccc32)c1 (stereo not shown) [Example 62 Compound, 1-(3,6-Dibromo-9H-carbazol-9-yl)-3-(3-methoxyphenylamino)-propan-2-ol] | – | activity comparable to Example 45 Compound; also recorded: retained robust activity | – | –
8 | N[C@@H]1C[C@H]1c1ccccc1 (racemic) [tranylcypromine] | did not affect the magnitude of neurogenesis | – | – | –
9 | Fc1ccc([C@@H]2CCNC[C@H]2COc2ccc3c(c2)OCO3)cc1 [paroxetine] | did not affect the magnitude of neurogenesis | – | – | –
10 | OC(CNc1ncccn1)Cn1c2ccc(Br)cc2c2cc(Br)ccc21 (stereo not shown) [Example P7C3-S8] | – | devoid of activity in both assays | devoid of activity in both assays | –
11 | NNCCc1ccccc1 [phenelzine] | ~52% | – | – | –
12 | CN1CCN2c3ncccc3Cc3ccccc3C2C1 (stereo not shown) [mirtazapine] | did not affect the magnitude of neurogenesis | – | – | –
13 | OC(COc1ccccc1)Cn1c2ccc(Br)cc2c2cc(Br)ccc21 (stereo not shown) [Example P7C3S40] | – | neuroprotective activity in both assays resides exclusively in the S enantiomer | neuroprotective activity in both assays resides exclusively in the S enantiomer | –
14 | COc1cccc(NCC(O)Cn2c3ccc(Br)cc3c3cc(Br)ccc32)c1 (single isomer, unassigned; (-)) [(−) enantiomer of Example 62 Compound, 1-(3,6-Dibromo-9H-carbazol-9-yl)-3-(3-methoxyphenylamino)-propan-2-ol] | – | displayed diminished activity | – | –
15 | O[C@H](COc1ccccc1)Cn1c2ccc(Br)cc2c2cc(Br)ccc21 [Example P7C3S41] | – | neuroprotective activity in both assays resides exclusively in the S enantiomer; also recorded: potency equal to or greater than P7C3 in both in vivo assays | neuroprotective activity in both assays resides exclusively in the S enantiomer; also recorded: potency equal to or greater than P7C3 in both in vivo assays | –
16 | COc1cccc(NCC(F)Cn2c3ccc(Br)cc3c3cc(Br)ccc32)c1 (single isomer, unassigned) [Example 144a, N-(3-(3,6-dibromo-9H-carbazol-9-yl)-2-fluoropropyl)-3-methoxyaniline] | – | more active than P7C3-S114 | – | –
17 | Cc1cc(C)n(CC(O)Cn2c3ccc(Br)cc3c3cc(Br)ccc32)n1 (stereo not shown) [Example P7C3-S25] | – | active in both | active in both | –
18 | O=C(O)Cn1c2ccc(Br)cc2c2cc(Br)ccc21 [Example P7C3-S165] | – | neuroprotection was observed in both assays | neuroprotection was observed in both assays | –
19 | COc1cccc(NCC(O)Cn2c3ccc(Br)cc3c3cc(Br)ccc32)c1 (single isomer, unassigned; (-)) [(−) (levorotatory) enantiomer of 1-(3,6-Dibromo-9H-carbazol-] | – | lower activity | – | –
